Results on four sequences are retold here after patent US10179164B2, “Method for inducing an immune response for treatment of cancer and autoimmune diseases or conditions” (priority 2011, dated 2019).

For test [1], the system named is C57BL/6 bone marrow cells (monocyte population). In words: Flow cytometry of CD11c and CD86 expression on peptide-treated bone marrow cells. In kind it is cell-based, mouse (C57BL/6). The settings on record: BM monocyte population by light scatter, second day after treatment; for CD11c expression: PE-anti-CD11c, versus untreated; for CD86 expression: PE-anti-CD86, versus untreated. The procedure:
Bone marrow (BM) cells were prepared. Briefly, the femurs and tibias were obtained from five C57BL/6 female mice, and the ends were removed to expose the hollow bone packed with marrow. BM cells were flushed from the bones with cold Hanks Balanced Salt Solution (HBSS) using a sterile disposable 22 g needle and pooled. Red blood cells (RBCs) were lysed using Tris-buffered ammonium chloride and resultant cells were washed 3 times in HBSS, BM cells were suspended in tissue culture medium (TCM) (RPMI 1640 with glutaminic plus […] PenStrep, 50 μM 2-mercaptoethanol, and 5% fetal calf serum) at approximately 5×10^6 cells/ml and incubated for 1 hour at 37° C. in a 5% CO2 atmosphere in plastic tissue culture flasks to remove adherent, mature macrophages. Decanted non-adherent cells were resuspended in TCM and 1.5×10^6 BM cells in 1 ml were placed into each well of a 24 well tissue culture plate (Falcon) and either left untreated or treated with […] of peptide J or JgD LEAPS™ heteroconjugate. After incubation for 48 hrs at 37° C., cells were viewed and photographed for changes in morphology, tissue culture supernatants were removed and the cells were prepared for flow cytometric analysis.
For analysis of CD11c and CD86 expression, untreated and peptide treated BM cells, prepared and treated as described above, were labeled with PE-anti-Cd11c or PE-anti CD86 (Beckman Coulter Fullerton, Calif.) At least […] were analyzed (Altra FACS, Beckman Coulter) using forward and side scatter parameters to limit (gating) the immunofluorescence analysis to cells of the size and granularity of monocytes and dendritic cells.
The monocyte population of BM cells, as defined by light scatter parameters, was analyzed on the second day after treatment with J, gD, JgD or JH.

The test system of test [2] is collagen induced arthritis (CIA) model in DBA/IJ mice. In words: Collagen induced arthritis (CIA) model, Arthritis Index. Format: in vivo. The procedure:
The following study is of CEL-2000 therapeutic vaccine for collagen induced arthritis (CIA) where the first step was to identify a good animal model for testing the vaccine, which is the collagen induced arthritis (CIA) model in young (6-7) week old male DBA/IJ mice. These mice received 2 injections of bovine collagen the first in complete Freund's adjuvant (CFA) on day 0 and then 3 weeks later on day 21, in Incomplete CFA. After the second collagen injection, the mice were evaluated daily for any joint swelling or redness. Each of the paws was scored on a 4 point scale (Arthritis Index (AI) with respect to the number of digits with symptoms and the thickness of the paw measured, at least 3-4 times a week. Each mouse was weighed weekly.
When significant disease is noted, usually about day 28, the mice are grouped (n=8) with a range of scores between 1 and 6 and group mean of 2.5 to 3. At this point the therapy begins according to protocol. Controls include groups with induced disease but no therapy and groups of healthy mice without induced disease. A therapy control of Enbrel® (3 mg/kg, every other day) was included. Over the 28-day course of study, the outcomes of different CEL-2000 and CEL-2003 treatment schedules were compared with Enbrel. In this study, CEL-200 treatment with 2 doses of 33 or 100 nmol were given subcutaneously on days 0 and 7 or on days 0 and 14. CEL-2003 was used at one dose of […] on days 0 and 14. […] The AI score for each paw (4 paws total) were added for each group and reported on FIG. 4.

The next test deals with IL-12p70. In words: Intracellular IL-12p70 flow cytometry of CD3- bone marrow cells. In kind it is cell-based, mouse (C57BL/6). The conditions noted are these: CD3- BM cells, PE-anti-IL-12p70. An excerpt:
CD3+ cells were removed from BM cells using the fluorescence activated cell sorter and then untreated or treated with JgD, gD or JH. Flow cytometric analysis of the sorted population confirmed the removal of CD3 positive cells. The CD3− BM cells were labeled with FIT C-anti-CD8 (Beckman Coulter (clone 53-6.7)), fixed with paraformaldehyde, permeabilized with saponin (Intraprep, Immunotech), labeled with PE-anti-IL-12p70 (Beckman Coulter) and then post fixed with paraformaldehyde prior to immunofluorescence analysis.

As to SLKMADPNRFRGKDLP [gD], in test [1], the CD11c expression entry is on record as “no discernible change” and the CD86 expression result is “no discernible change”.
For “DLLKNGERIEKVEGGGTGGKPGIAGFKGEQGPKGEP (Heteroconjugate construct) [CEL-2000, Peptide J linked to the human type II collagen peptide 254-273 through a triglycine linker]”, the “progression of arthritis disease (AI score)” value in test [2] (100 nmol dose (3x treatment) subcutaneously on days 0 and 7, 28-day study) is recorded as “appeared to limit the progression of disease throughout the experimental period”. Further, in test [2] (2 doses of 33 or 100 nmol s.c. on days 0 and 7 or 0 and 14 (most regimes), Enbrel 3 mg/kg every other day for 28 days), the “progression of arthritis disease compared with Enbrel” value is listed as “at least as good as those of mice treated with Enbrel®”. In test [2] (days 7, 14 and 21, 3x dose days 0 and 14, 3x days 0 and 7, 1x days 0 and 7 or 0 and 14), the “Student t test comparison of treatment groups with Enbrel” value was “slightly better than Embrel”.
“DLLKNGERIEKVE (listed as Homo sapiens) [J-ICBL, ICBL derived from amino acids 38-50 of the β-2-microglobulin chain of the MHC 1 molecule]”: in test [1], the CD11c expression result was “no discernible change” and the CD86 expression result is recorded as “no discernible change”. Further, the IL-12p70 expressing cells entry with IL-12p70 is “no significant increase”.
On to DLLKNGERIEKVEGGGSLKMADPNRFRGKDLP [JgD], for which, in test [1], the CD11c expression result is given as “expressed” and the CD86 expression entry is “expressed”.
